“And” between values parts separate entries of the source, which are not always exact repeats. Identical values can stand only once. Like-named read-outs stand apart in the source and are kept apart here.
Tests used:
[1] = Passive artificial membrane permeability (PAMPA)
porcine pepsin = target: T1, porcine pepsin (Sus scrofa, UniProt P00791); assay: Peptide stability in simulated gastric fluid (SGF); format: in vitro ADME
T1 construct: 0.32 g of porcine pepsin (Sigma-Aldrich, P7125) was dissolved under gentle agitation; purchased Sigma-Aldrich P7125
T1 sequence (P00791 60-385): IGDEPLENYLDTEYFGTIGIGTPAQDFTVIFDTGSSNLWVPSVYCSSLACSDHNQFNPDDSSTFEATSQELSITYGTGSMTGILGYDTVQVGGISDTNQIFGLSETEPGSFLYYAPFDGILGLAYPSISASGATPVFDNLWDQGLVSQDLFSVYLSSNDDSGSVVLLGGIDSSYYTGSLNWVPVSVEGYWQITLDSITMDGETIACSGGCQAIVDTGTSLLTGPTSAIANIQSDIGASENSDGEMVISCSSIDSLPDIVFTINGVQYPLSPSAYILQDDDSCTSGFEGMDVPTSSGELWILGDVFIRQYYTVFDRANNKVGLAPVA
Method in brief: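 Peptide from a 1 mM DMSO stock was added to fluid pre-warmed at 37 °C. SGF was pH 1.2 NaCl with porcine pepsin (0.32 g per 100 ml), and SIF was pH 6.8 potassium phosphate with porcine pancreatin (1 g per 100 ml). Supernatant peptide was quantified by LC–MS, with residual expressed as T1/T0.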

rat α-thrombin = target: T2, rat α-thrombin (Rattus norvegicus, UniProt P18292); assay: Protease inhibition, Ki for rat α-thrombin (fluorogenic substrate Z-Gly-Gly-Arg-AMC); format: biochemical; conditions: rat alpha thrombin; for Slope normalized to DMSO (proteolytic substrate cleavage over time): replicates R1-R3
T2 construct: rat α-thrombin (Molecular Innovations) were used at final concentrations of 2 nM and 3 nM; purchased Molecular Innovations
Method in brief: (§1)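 Ki derived through Cheng–Prusoff from IC50s (four-parameter logistic fit) against activity of peptide-free controls. Product fluorescence was read every 3 min over 30 min at 25 °C, substrate Z-Gly-Gly-Arg-AMC at 50 μM. Enzyme was 2 nM human or 3 nM rat α-thrombin, pH 7.4 buffer.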

[2] = Metabolic stability in rat liver microsomes (RLMs); conditions: for microsomal CLint / half-life: rat, microsomes
human α-thrombin = human α-thrombin (Homo sapiens, UniProt P00734); assay: Protease inhibition, Ki for human α-thrombin (fluorogenic substrate Z-Gly-Gly-Arg-AMC); format: biochemical; conditions: human alpha thrombin; for Slope normalized to DMSO (proteolytic substrate cleavage over time): replicates R1-R3
Method in brief: as §1

O=C1C[C@H]2CCCN2C(=O)[C@H](Cc2ccccc2)NC(=O)[C@@H](NC(=O)c2ccc(Cl)s2)CCCSC/C=C/CSCCN1 [compound 36]
PAMPA permeability: % permeability ([1]; 50 μM, 12–18 h, acceptor concentration relative to equilibrium): 26 ± 9% | Papp at 50 μM ([1]; PAMPA, pH 7.4): 2.88 ×10⁻⁶ cm/s | Permeability% Average ([1]; top well sample vs theoretical equilibrium sample (TIC), average of R1-R3): 26.1% | Permeability% ([1]; top well sample vs theoretical equilibrium sample (TIC), single replicates R1-R3): 30.77% and 15.94% and 31.49% | SGF stability, Residual peptide Average (porcine pepsin; after 8 h vs 0 h (TIC), average of R1-R3): 87.04 | SGF stability, Residual peptide (porcine pepsin; after 8 h vs 0 h (TIC), single replicates R1-R3): 86.50 and 93.65 and 80.97 | remaining at 8 h (porcine pepsin; simulated gi fluid, 8 h, 37 °C, pH 1.2, read-out: Proteolytic stability: SGF (8 h) % remaining): 87 ± 6% | Ki (rat α-thrombin; average of R1-R3, read-out: Ki Average, rat alpha thrombin inhibition): 27.1 nM | Slope normalized to DMSO (proteolytic substrate cleavage over time) (rat α-thrombin; peptide 1.02E-03 uM): 95.7 and 93.2 and 92.5 | Slope normalized to DMSO (proteolytic substrate cleavage over time) (rat α-thrombin; peptide 1.04E+00 uM): 20.0 and 16.8 and 13.2 | Slope normalized to DMSO (proteolytic substrate cleavage over time) (rat α-thrombin; peptide 1.27E-04 uM): 100.2 (2×) and 94.0 | Slope normalized to DMSO (proteolytic substrate cleavage over time) (rat α-thrombin; peptide 1.30E-01 uM): 40.2 and 33.7 and 29.3 | Slope normalized to DMSO (proteolytic substrate cleavage over time) (rat α-thrombin; peptide 1.59E-05 uM): 102.8 and 104.6 and 99.0 | Slope normalized to DMSO (proteolytic substrate cleavage over time) (rat α-thrombin; peptide 1.63E-02 uM): 70.9 and 69.0 and 58.5 | Slope normalized to DMSO (proteolytic substrate cleavage over time) (rat α-thrombin; peptide 1.67E+01 uM): 6.7 and 7.6 and -3.8 | Slope normalized to DMSO (proteolytic substrate cleavage over time) (rat α-thrombin; peptide 2.03E-03 uM): 92.4 and 90.4 and 105.7 | Slope normalized to DMSO (proteolytic substrate cleavage over time) (rat α-thrombin; peptide 2.08E+00 uM): 14.7 and 13.1 and 8.2 | Slope normalized to DMSO (proteolytic substrate cleavage over time) (rat α-thrombin; peptide 2.54E-04 uM): 98.1 and 97.6 and 92.4 | Slope normalized to DMSO (proteolytic substrate cleavage over time) (rat α-thrombin; peptide 2.60E-01 uM): 33.9 and 26.8 and 32.5 | Slope normalized to DMSO (proteolytic substrate cleavage over time) (rat α-thrombin; peptide 3.18E-05 uM): 102.6 and 99.4 and 97.6 | Slope normalized to DMSO (proteolytic substrate cleavage over time) (rat α-thrombin; peptide 3.26E-02 uM): 65.2 and 58.8 and 53.9 | Slope normalized to DMSO (proteolytic substrate cleavage over time) (rat α-thrombin; peptide 3.33E+01 uM): 6.5 and 6.8 and 3.9 | Slope normalized to DMSO (proteolytic substrate cleavage over time) (rat α-thrombin; peptide 4.07E-03 uM): 89.6 and 87.8 and 79.0 | Slope normalized to DMSO (proteolytic substrate cleavage over time) (rat α-thrombin; peptide 4.17E+00 uM): 10.5 and 9.5 and 2.3 | Slope normalized to DMSO (proteolytic substrate cleavage over time) (rat α-thrombin; peptide 5.09E-04 uM): 97.9 and 94.9 and 105.4 | Slope normalized to DMSO (proteolytic substrate cleavage over time) (rat α-thrombin; peptide 5.21E-01 uM): 40.1 and 33.7 and 38.8 | Slope normalized to DMSO (proteolytic substrate cleavage over time) (rat α-thrombin; peptide 6.36E-05 uM): 100.2 and 99.0 and 96.8 | Slope normalized to DMSO (proteolytic substrate cleavage over time) (rat α-thrombin; peptide 6.51E-02 uM): 49.2 and 44.9 and 38.0 | Slope normalized to DMSO (proteolytic substrate cleavage over time) (rat α-thrombin; peptide 6.67E+01 uM): 8.1 and 8.3 and 4.7 | Slope normalized to DMSO (proteolytic substrate cleavage over time) (rat α-thrombin; peptide 7.95E-06 uM): 104.1 and 101.6 and 100.1 | Slope normalized to DMSO (proteolytic substrate cleavage over time) (rat α-thrombin; peptide 8.14E-03 uM): 83.6 and 78.8 and 74.4 | Slope normalized to DMSO (proteolytic substrate cleavage over time) (rat α-thrombin; peptide 8.33E+00 uM): 19.0 and 7.9 and 5.9 | IC50 (rat α-thrombin; single replicates R1-R3, read-out: IC50, rat alpha thrombin inhibition): 60.7 nM and 43.2 nM and 43 nM | Ki (rat α-thrombin; single replicates R1-R3, read-out: Ki, rat alpha thrombin inhibition): 33.6 nM (2×) and 23.9 nM (2×) and 23.8 nM (2×) | TIC value of compound, 0 min, R1 ([2]; rat liver microsomes, 0 min, replicate R1): 9960125 | TIC value of compound, 0 min, R3 ([2]; rat liver microsomes, 0 min, replicate R3): 9584351 | TIC value of compound, 5 min, R1 ([2]; rat liver microsomes, 5 min, replicate R1): 8960155 | TIC value of compound, 5 min, R3 ([2]; rat liver microsomes, 5 min, replicate R3): 9591941 | TIC value of compound, 15 min, R1 ([2]; rat liver microsomes, 15 min, replicate R1): 6029519 | TIC value of compound, 15 min, R3 ([2]; rat liver microsomes, 15 min, replicate R3): 6211335 | TIC value of compound, 30 min, R1 ([2]; rat liver microsomes, 30 min, replicate R1): 3459884 | TIC value of compound, 30 min, R3 ([2]; rat liver microsomes, 30 min, replicate R3): 2699618 | TIC value of compound, 60 min, R1 ([2]; rat liver microsomes, 60 min, replicate R1): 607530 | TIC value of compound, 60 min, R3 ([2]; rat liver microsomes, 60 min, replicate R3): 705245 | microsomal CLint ([2]; CL (ul/min/mg protein), R1, RLM CL, replicate R1, unrounded): 70.7 µL/min/mg | microsomal CLint ([2]; CL (ul/min/mg protein), R2, RLM CL, replicate R2, unrounded): 61.9 µL/min/mg | microsomal CLint ([2]; CL (ul/min/mg protein), R3, RLM CL, replicate R3, unrounded): 69.3 µL/min/mg | half-life ([2]; Half Life (min), R1, RLM metabolic stability, replicate R1): 19.6 min | half-life ([2]; Half Life (min), R2, RLM metabolic stability, replicate R2): 22.4 min | half-life ([2]; Half Life (min), R3, RLM metabolic stability, replicate R3): 20 min | half-life ([2]; Metabolic stability: Half life T1/2 (min), RLMs, mean and SD, three measurements): 21 ± 1 min | microsomal CLint ([2]; Metabolic stability: RLM CL (ul/min/mg), RLMs, mean and SD, three measurements): 67 ± 4 µL/min/mg | microsomal CLint ([2]; RLM CL, Average, average of R1-R3): 67.3 µL/min/mg | microsomal CLint ([2]; RLM CL, R1, RLM CL, replicate R1, summary block): 70.7 µL/min/mg | microsomal CLint ([2]; RLM CL, R2, RLM CL, replicate R2, summary block): 61.9 µL/min/mg | microsomal CLint ([2]; RLM CL, R3, RLM CL, replicate R3, summary block): 69.3 µL/min/mg | Ki (human α-thrombin; average of R1-R3, read-out: Ki Average, human alpha thrombin inhibition): 286 nM | Slope normalized to DMSO (proteolytic substrate cleavage over time) (human α-thrombin; peptide 1.02E-03 uM): 96.6 and 96.1 and 97.6 | Slope normalized to DMSO (proteolytic substrate cleavage over time) (human α-thrombin; peptide 1.04E+00 uM): 45.5 and 28.3 and 38.4 | Slope normalized to DMSO (proteolytic substrate cleavage over time) (human α-thrombin; peptide 1.27E-04 uM): 99.5 and 101.3 and 100.1 | Slope normalized to DMSO (proteolytic substrate cleavage over time) (human α-thrombin; peptide 1.30E-01 uM): 62.0 and 52.8 and 61.8 | Slope normalized to DMSO (proteolytic substrate cleavage over time) (human α-thrombin; peptide 1.59E-05 uM): 98.6 and 105.1 and 101.6 | Slope normalized to DMSO (proteolytic substrate cleavage over time) (human α-thrombin; peptide 1.63E-02 uM): 86.9 and 79.7 and 80.1 | Slope normalized to DMSO (proteolytic substrate cleavage over time) (human α-thrombin; peptide 1.67E+01 uM): 5.9 and 8.4 and 12.3 | Slope normalized to DMSO (proteolytic substrate cleavage over time) (human α-thrombin; peptide 2.03E-03 uM): 95.9 and 89.0 and 96.4 | Slope normalized to DMSO (proteolytic substrate cleavage over time) (human α-thrombin; peptide 2.08E+00 uM): 22.1 and 26.4 and 30.9 | Slope normalized to DMSO (proteolytic substrate cleavage over time) (human α-thrombin; peptide 2.54E-04 uM): 98.5 and 99.2 and 101.9 | Slope normalized to DMSO (proteolytic substrate cleavage over time) (human α-thrombin; peptide 2.60E-01 uM): 51.6 and 49.5 and 56.4 | Slope normalized to DMSO (proteolytic substrate cleavage over time) (human α-thrombin; peptide 3.18E-05 uM): 101.8 and 100.2 and 98.7 | Slope normalized to DMSO (proteolytic substrate cleavage over time) (human α-thrombin; peptide 3.26E-02 uM): 82.4 (2×) and 76.9 | Slope normalized to DMSO (proteolytic substrate cleavage over time) (human α-thrombin; peptide 3.33E+01 uM): 6.3 and 6.8 and 11.7 | Slope normalized to DMSO (proteolytic substrate cleavage over time) (human α-thrombin; peptide 4.07E-03 uM): 100.1 and 90.9 and 93.8 | Slope normalized to DMSO (proteolytic substrate cleavage over time) (human α-thrombin; peptide 4.17E+00 uM): 10.9 and 18.5 and 22.2 | Slope normalized to DMSO (proteolytic substrate cleavage over time) (human α-thrombin; peptide 5.09E-04 uM): 105.8 and 102.8 and 98.4 | Slope normalized to DMSO (proteolytic substrate cleavage over time) (human α-thrombin; peptide 5.21E-01 uM): 63.9 and 55.1 and 63.1 | Slope normalized to DMSO (proteolytic substrate cleavage over time) (human α-thrombin; peptide 6.36E-05 uM): 96.6 and 96.9 and 98.9 | Slope normalized to DMSO (proteolytic substrate cleavage over time) (human α-thrombin; peptide 6.51E-02 uM): 69.9 and 61.7 and 72.5 | Slope normalized to DMSO (proteolytic substrate cleavage over time) (human α-thrombin; peptide 6.67E+01 uM): 8.8 and 12.5 and 11.5 | Slope normalized to DMSO (proteolytic substrate cleavage over time) (human α-thrombin; peptide 7.95E-06 uM): 102.0 and 99.6 and 99.3 | Slope normalized to DMSO (proteolytic substrate cleavage over time) (human α-thrombin; peptide 8.14E-03 uM): 95.5 and 84.9 and 92.8 | Slope normalized to DMSO (proteolytic substrate cleavage over time) (human α-thrombin; peptide 8.33E+00 uM): 4.1 and 13.8 and 13.6 | IC50 (human α-thrombin; single replicates R1-R3, read-out: IC50, human alpha thrombin inhibition): 453 nM and 218 nM and 444 nM | Ki (human α-thrombin; single replicates R1-R3, read-out: Ki, human alpha thrombin inhibition): 349 nM and 168 nM and 342 nM
